The values that follow are results of earlier work, collected in PMC10238757 (Pharmacology Research & Perspectives, 2023).

Each structure is given as a SMILES string.

The conditions of data set [1]: at higher doses; cited from earlier work.
Data set [2] concerns HIV-1. The conditions noted are these: cited from earlier work.

For `C=C(C)[C@@H]1CC[C@]2(NCCN3CCS(=O)(=O)CC3)CC[C@]3(C)[C@H](CC[C@@H]4[C@@]5(C)CC=C(c6ccc(C(=O)O)cc6)C(C)(C)[C@@H]5CC[C@]43C)[C@@H]12` [GSK3532795], the absorption behaviour result in data set [1] was “plateaus in absorption”.
Take `C=C(C)[C@@H]1CC[C@]2(NCCN3CCS(=O)(=O)CC3)CC[C@]3(C)[C@H](CC[C@@H]4[C@@]5(C)CC=C(C6=CC[C@@](CF)(C(=O)O)CC6)C(C)(C)[C@@H]5CC[C@]43C)[C@@H]12` [GSK3640254, reference compound]: the absorption behaviour result in data set [1] is on record as “plateaus in absorption”. Moreover, the potency in vitro entry in data set [2] is given as “low nanomolar”.
